{
  "source": "ChEMBL document CHEMBL1149731",
  "about": "“Aflavarin and -Aflatrem: New Anti-Insectan Metabolites from the Sclerotia of Aspergillus flavus” (1992)",
  "key": {"Carpophilus [1]": {"test_system": "Carpophilus", "assay": "Antiinsectan activity against adult Carpophilus hemipterus assessed as feeding reduction at 100 ppm administered through test diet relative to control", "type": "functional", "set-up": "scale not given: the % may be the effect or the level left"}, "Carpophilus [2]": {"test_system": "Carpophilus", "assay": "Antiinsectan activity against Carpophilus hemipterus larvae assessed as feeding reduction at 100 ppm administered through test diet relative to control", "type": "functional", "set-up": "scale not given: the % may be the effect or the level left"}, "Carpophilus [3]": {"test_system": "Carpophilus", "assay": "Insecticidal activity against Carpophilus hemipterus", "type": "functional, organism-based"}, "Bacillus subtilis": {"test_system": "Bacillus subtilis", "assay": "Antibacterial activity against Bacillus subtilis at 100 ug/disk by standard disk assay", "type": "functional, organism-based"}, "Staphylococcus aureus": {"test_system": "Staphylococcus aureus", "assay": "Antibacterial activity against Staphylococcus aureus at 100 ug/disk by standard disk assay", "type": "functional, organism-based"}, "Candida albicans": {"test_system": "Candida albicans", "assay": "Antifungal activity against Candida albicans at 100 ug/disk by standard disk assay", "type": "functional, organism-based"}, "A549": {"test_system": "A549", "assay": "Cytotoxicity against human A549 cells", "type": "functional", "conditions": "read-out: ED50 (the source's name)"}, "MCF7": {"test_system": "MCF7", "assay": "Cytotoxicity against human MCF7 cells", "type": "functional", "conditions": "read-out: ED50 (the source's name)"}, "HT-29": {"test_system": "HT-29", "assay": "Cytotoxicity against human HT-29 cells", "type": "functional", "conditions": "read-out: ED50 (the source's name)"}, "Helicoverpa zea": {"test_system": "Helicoverpa zea", "assay": "Insecticidal activity against Helicoverpa zea assessed as reduction in growth rate", "type": "functional, organism-based"}},
  "note": "Active and inactive are the calls of the source. The calls are words filed in the database; no cut-off is given here.",
  "data": [
    {"smiles": "COc1cc(CO)c2c(OC)c(-c3c(OC)cc(C)c4c(OC)cc(=O)oc34)c(=O)oc2c1", "note": "[AFLAVARIN]", "values": [
      {"measurement": "Activity", "setting": "Carpophilus [1]", "value": 66, "unit": "%"},
      {"measurement": "Activity", "setting": "Carpophilus [2]", "value": 53, "unit": "%"},
      {"measurement": "Activity", "setting": "Carpophilus [3]", "value": "Active"},
      {"measurement": "Activity", "setting": "Bacillus subtilis", "value": "inactive"},
      {"measurement": "Activity", "setting": "Staphylococcus aureus", "value": "inactive"},
      {"measurement": "Activity", "setting": "Candida albicans", "value": "inactive"},
      {"measurement": "EC50", "setting": "A549", "value": 7.5, "unit": "µg/mL"},
      {"measurement": "EC50", "setting": "MCF7", "value": 55, "unit": "µg/mL"},
      {"measurement": "EC50", "setting": "HT-29", "value": 5.8, "unit": "µg/mL"}
    ]},
    {"smiles": "C=CC(C)(C)c1ccc2[nH]c3c(c2c1)C[C@@H]1CC[C@@]2(O)C4=CC(=O)[C@@H]5O[C@]4(CC[C@]2(C)[C@@]31C)OC5(C)C", "values": [
      {"measurement": "Activity", "setting": "Helicoverpa zea", "value": "Active"}
    ]},
    {"smiles": "COc1cc(C)c2c(OC)cc(=O)oc2c1-c1c(O)cc(C)c2c(OC)cc(=O)oc12", "values": [
      {"measurement": "Activity", "setting": "Carpophilus [1]", "value": "inactive"},
      {"measurement": "Activity", "setting": "Carpophilus [2]", "value": "inactive"}
    ]}
  ]
}
